{"source": "patent US7919077B2", "about": "“Pharmaceutical compositions comprising CCL2 and use of same for the treatment of inflammation” (Yeda Research and Development Co. Ltd., priority 2006, dated 2011)", "key": {"naïve T cells": {"test_system": "naïve T cells", "experiment": "Transwell migration assay, naïve T cells", "format": "cell-based, mice", "details": "cells pre-treated 30 min with CCL2 0.1 ng/ml, 3 hours migration", "experimental": "Stimulation of T cells—Cell stimulation was performed as previously described [Flaishon et al., J Biol Chem. (2001) 276:46701-46706]. Briefly, 1×10^7 T cells were suspended in 1 ml DMEM cell medium containing 10% (v/v) Fetal Calf Serum (FCS). Next, 0.1 ng/ml CCL2 (CytoLab) was added to each tube and the tubes were immediately placed in 37° C. for 30 minutes. Immediately after stimulation, cells were washed and handled as described hereinbelow.\nTranswell migration assay—Chemotaxis was assayed using Transwell chambers as was previously described [Flaishon, L. F., et al., J. Biol. Chem. 276:46701 (2001)]. Naive T cells were suspended for 30 minutes with RPMI medium with or without CCL2 (0.1 ng/ml, Peprotech Inc., Rocky Hill, N.J.), and thereafter placed in the upper chamber of a 24 well Transwell plate, and allowed to migrate towards CXCL12 (SDF-1, 0.1 mg/ml PeproTech, Inc., Rocky Hill, N.J.) or to the secondary lymphoid tissue chemokine (SLC, CCL21, 0.4 mg/ml; PeproTech, Inc., Rocky Hill, N.J.), placed in the lower chamber. Following 3 hours, the number of the migrating cells found in the lower chamber was evaluated by FACS (FACS calibur, BD bioscience). Assay was repeated 3 times and results were analyzed as percent migration, being the number of migrating cells in the lower chamber as a fraction of the input cells in the upper chamber."}, "[1]": {"test_system": "human T cells interacting with ICAM-1 (LFA-1)", "experiment": "Laminar flow adhesion assay on ICAM-1 with co-immobilized CCL21", "format": "cell-based", "details": "low dose chemokine pretreatment", "experimental": "Laminar flow adhesion assays—Purified VCAM-1 or ICAM-1-Fc (both from R&D Systems, Minneapolis, Minn.) were coated with or without CCL21 (R&D Systems) on polystyrene plates as previously described [Grabovsky et al., J Exp Med. (2000) 192:495-506; Sigal et al., J Immunol. (2000) 165:442-452]. The polystyrene plates were each assembled on the lower wall of the flow chamber as previously described [Feigelson et al., J Biol Chem. (2001) 276:13891-13901]. All flow experiments were conducted at 37° C. Cells were washed with cation-free H/H medium, resuspended in binding medium (H/H medium supplemented with 1 mM CaCl2 and 1 mM MgCl2) and perfused through the flow chamber at low shear stress (0.5-0.75 dyn/cm^2) for 2 minutes. Tethers were defined as transient or rolling if cells attached briefly (<2 seconds) to the substrate and as arrests if immediately arrested and remaining stationary for at least 5 seconds of continuous flow. Frequencies of adhesive categories within differently pretreated cells were determined as a percentage of cells flowing immediately over the substrates, as previously described [Grabovsky et al., supra]. To assess resistance to detachment over time, accumulated cells were subjected to a shear stress of 5 dyn/cm^2 for 5 minutes. At the indicated time points, the number of cells that remained bound was expressed relative to T cell population originally accumulated in the first 2 minute period of the assay. Over 90% of cellular tethers to VCAM-1 or ICAM-1 were blocked by pretreating cells with VLA-4 or LFA-1 blockers respectively."}, "[2]": {"test_system": "effector (Th1, Th2) T cells", "experiment": "Cytoskeleton rearrangement (actin polymerization), effector T cells", "format": "cell-based, mice", "details": "CCL2 0.1 ng/ml", "experimental": "T cell sorting—Spleen and […] were obtained from mice as previously described [Shachar I. and Flavell R. A., Science 274:106 (1996)]. T cells were enriched using the MACS system (Miltenyi Biotec, Auburn, Calif.) according to the manufacturer's protocol. Spleen cells were incubated with anti-CD45R (B220) magnetic beads (Miltenyi Biotec, Auburn, Calif.) and the CD45 negative cells were collected. CD4+ T cells were enriched using anti-CD4 magnetic beads (Miltenyi Biotec, Auburn, Calif.). […]\nCytoskeleton rearrangement—T cells were pre-incubated for 30 minutes in the presence or absence of CCL2 (0.1 ng/ml), and then stimulated with either CXCL12 (0.1 mg/ml PeproTech, Inc., Rocky Hill N.J.) or SLC (CCL21, 0.4 mg/ml, PeproTech, Inc., Rocky Hill, N.J.), for 15 seconds. Cells were then immediately fixed with paraformaldehyde, permeabilized and their intracellular F-actin was stained with FITC-phalloidin (Sigma-Aldrich, St. Louis, Mo.), and then analyzed by flow cytometry to determine the state of their cytoskeleton, as previously described [Flaishon, L. F., et al., J. Biol. Chem. 276:46701 (2001)]."}, "TNBS colitis mouse model": {"experiment": "TNBS colitis mouse model", "format": "in vivo, mice", "details": "for Diarrhea (# of mice): 8 mice; for Colitis score: Wallace score 0 to 16", "experimental": "TNBS colitis model and treatment with CCL2—TNBS colitis was induced as previously described [Ohkawara et al. (2002) Gastroenterology, 123:256]. Briefly, mice were anesthetized by i.p. injection (35 μl per mouse) of a mixture containing 85% ketamine and 15% xylazine (20 mg/ml). Next, 100 μl of TNBS [55% volume of 50% ethanol mixed with 45% volume of TNBS solution ([…]; Sigma-Aldrich)] was infused into the colonic lumen (about 3.5 cm of the anal verge) via 1 ml syringe attached to a feeding needle. Treated mice were weighted daily and visually inspected for clinical symptoms, such as rectal bleeding and diarrhea.\nTNBS mice were divided into 6 groups. CCL2 groups (10 mice in each group) were injected i.p. daily with different CCL2 concentrations (30 ng, 60 ng or 180 ng) in 200 μl of PBS from day 0 (immediately after TNBS induction) to day 6. Control groups (10 mice in each group) were injected i.p. daily with 200 μl PBS alone. Additionally, 5 mice were injected i.p. daily with dexamethasone; and 1 mouse which was not treated and served as negative control for future histology and weight.\nMacroscopic and histological assessment of colitis—An observer blind to the experimental procedure scored colitis for clinical manifestation of disease. The colon was macroscopically examined (×5 magnification) to evaluate the macroscopic lesions according to the Wallace criteria. The Wallace score ranks macroscopic colon lesions on a scale from 0 to 16 based on criteria reflecting inflammation, such as hyperemia, thickening of the bowel and the extent of ulceration. The colon was cut lengthwise and fixed in 4% paraformaldehyde for future histology."}, "[3]": {"details": "CCL2 30 ng i.p. daily day 0 to day 6"}, "[4]": {"details": "CCL2 60 ng i.p. daily day 0 to day 6"}, "[5]": {"details": "CCL2 180 ng i.p. daily day 0 to day 6"}}, "data": [{"substance": "CCL2: mammalian (e.g., human) CCL2 protein, GenBank NM_002982 / NP_002973; murine CCL2 used in the asthma model", "values": [{"measurement": "inhibition of migration of naïve T cells towards CXCL12", "setting": "naïve T cells; FIG. 2a", "value": "40-50%"}, {"measurement": "inhibition of migration of naïve T cells towards CCL21", "setting": "naïve T cells; FIG. 2b", "value": "40-50%"}, {"measurement": "post arrest adhesion strengthening on ICAM-1 (resistance to detachment)", "setting": "[1]; high shear stress 5 dyn/cm^2, FIG. 6b", "value": "failed to develop adhesion strengthening"}, {"measurement": "LFA-1 activation by surface bound CCL21 (arrest on ICAM-1)", "setting": "[1]; shear stress 0.5 dyn/cm^2, FIG. 6a", "value": "did not interfere"}, {"measurement": "CCL21 induced cytoskeleton rearrangement of effector cells", "setting": "[2]; CCL21 0.4 mg/ml 15 seconds", "value": "down-regulated"}, {"measurement": "CXCL12 induced cytoskeleton rearrangement of effector cells", "setting": "[2]; CXCL12 15 seconds", "value": "down-regulated"}, {"measurement": "Colon length (cm)", "setting": "TNBS colitis mouse model; [3]", "value": "6.25 ± 0.65", "unit": "cm"}, {"measurement": "Diarrhea (# of mice)", "setting": "TNBS colitis mouse model; [3]", "value": "4 # of mice"}, {"measurement": "Colitis score", "setting": "TNBS colitis mouse model; [3]", "value": "10.875 ± 4.29"}, {"measurement": "Colon length (cm)", "setting": "TNBS colitis mouse model; [4]", "value": "7.88 ± 0.35", "unit": "cm"}, {"measurement": "Diarrhea (# of mice)", "setting": "TNBS colitis mouse model; [4]", "value": "0 # of mice"}, {"measurement": "Colitis score", "setting": "TNBS colitis mouse model; [4]", "value": "2.13 ± 1.89"}, {"measurement": "Colon length (cm)", "setting": "TNBS colitis mouse model; [5]", "value": "7.88 ± 0.58", "unit": "cm"}, {"measurement": "Diarrhea (# of mice)", "setting": "TNBS colitis mouse model; [5]", "value": "0 # of mice"}, {"measurement": "Colitis score", "setting": "TNBS colitis mouse model; [5]", "value": "2.88 ± 1.89"}, {"measurement": "TNBS colitis disease severity (diarrhea, colon shortening)", "setting": "TNBS colitis mouse model; mice, CCL2 i.p. daily day 0 to day 6, Table 2, FIG. 10", "value": "significantly inhibited the disease"}]}]}
